{"source": "ChEMBL document CHEMBL1221203", "about": "“Modern synthetic efforts toward biologically active terpenes” (Nat Chem Biol, 2007)", "test_system": "Human immunodeficiency virus", "assay": "Antiviral activity against HIV replication in human H9 cells", "format": "functional, organism-based", "conditions": "Human immunodeficiency virus 1, H9"}
{"smiles": "C[C@]12CCC[C@]3(C(=O)OC1)[C@@H]2CC[C@@]12C[C@@H](CC[C@H]13)[C@](C)(O)C2", "note": "[NEOTRIPTERIFORDIN]", "values": [{"measurement": "EC50", "result": 25, "unit": "nM"}]}
